One experiment addresses T1, recombinant human STIM1 and Orai1 (HEK-293 stable cells; JR251) (Homo sapiens, UniProt Q96D31).
T1 construct: c-myc (C); expressed in transfected cells
In words: Fluorescence-based assay of store-operated calcium entry in Orai1/STIM1 stable cells. It counts as cell-based. The settings on record: 50% inhibition of Peak-Basal signal. As for the experimental part:
A. Fluorescence-Based Assay of Store-Operated Calcium Entry in Orai1/STIM1 Stable Cells.
Cells stably expressing recombinant human STIM1 and Orai1 were generated by transfecting a human Orai1 expression plasmid (pcDNA3.1-Orai1-cmyc) into HEK-293 cells stably overexpressing human STIM1 (Roos et al. 2005 JCB 169(3): 435-445). Colonies of cells stably expressing both STIM1 and Orai1 proteins were selected and then subcloned by limiting dilution. Cells were cultured at 37° C./6% CO2 in complete medium with 10% FBS and appropriate selection markers.
The day prior to performing the assay Orai1/STIM1 stable cells were plated in 50 μL of complete medium at 90-95% confluence in a 384 well plate. Cells were grown at 37° C./6% CO2 overnight. On the day of the assay, 1.5 μM fluo-4-AM (Invitrogen) in complete medium was added to the cells, which were then incubated for 1 hour at RT. Cells were washed once in Ca^2+-free HBSS (Hank's buffered saline solution) and 35 μl of Ca^2+-free HBSS was added to each well. Test compounds were added to wells in a 10 μL Ca^2+-free HBSS solution, prepared at 4.5× the desired final concentration, and incubated for 30 minutes at RT. The initial baseline fluorescence signal was then measured with a FLIPR^384 (Molecular Devices) plate reader. Calcium entry was initiated by adding 5 μl of 10×CaCl2 (10 mM) in HBSS, and changes in cellular fluorescence were measured with the FLIPR^384 plate reader. In each well, the magnitude of the fluorescence signal as a result of calcium entry into the cell was determined by calculating the difference between the peak fluorescence signal measured after calcium addition and the initial baseline fluorescence signal (designated Peak-Basal). IC50 values were typically calculated as the concentration that inhibited 50% of the Peak-Basal signal (Table A).
T1 sequence (Q96D31 whole entry): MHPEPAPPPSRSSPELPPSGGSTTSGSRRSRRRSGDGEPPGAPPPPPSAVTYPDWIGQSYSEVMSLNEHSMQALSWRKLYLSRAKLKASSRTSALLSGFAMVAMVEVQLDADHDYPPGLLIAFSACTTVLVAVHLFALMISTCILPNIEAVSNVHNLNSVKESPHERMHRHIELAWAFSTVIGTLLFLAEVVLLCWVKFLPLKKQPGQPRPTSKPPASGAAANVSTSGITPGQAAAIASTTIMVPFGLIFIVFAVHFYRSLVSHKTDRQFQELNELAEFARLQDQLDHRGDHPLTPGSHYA
In the case of `O=C(Nc1scc(-c2ccc(Cl)cc2)c1C(=O)O)c1cc(-c2ccccc2)on1` [T], the IC50 was in the range of 0.5 to 1 µM.

The next experiment has as its system JR251 or RBL cells. In words: Store-operated calcium entry, either JR251 or RBL cells, or both. It counts as cell-based.
Conditions: not given
The method, boiled down: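 Orai1/STIM1 stable cells: fluo-4-AM loaded, compound 30 min at RT in Ca2+-free HBSS, then CaCl2 added; IC50 from Peak-Basal FLIPR fluorescence. RBL-2H3 cells: compound 5 min, then thapsigargin (5.5× stock, 5.5 uM) 25 min, then calcium added; IC50 from Upslope (signal 7 s after calcium minus baseline).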
Turning to `COc1cc(C)c(-c2csc(NC(=O)c3cc4ccccc4o3)c2C(=O)O)c(C)c1` [2-(benzofuran-2-carboxamido)-4-(4-methoxy-2,6-dimethylphenyl)thiophene-3-carboxylic acid], the IC50 was less than 10 µM.

Turning to `O=C(Nc1scc(-c2cc3cccc(-c4cc[nH]n4)c3o2)c1C(=O)O)c1cc2ccccc2o1` [4-(7-(1H-pyrazol-3-yl)benzofuran-2-yl)-2-(benzofuran-2-carboxamido)thiophene-3-carboxylic acid], the IC50 was less than 10 µM.

As for `COc1cccc(CCC(=O)Nc2scc(-c3ccc(Br)cc3)c2C(=O)O)c1` [4-(4-bromophenyl)-2-(3-(3-methoxyphenyl)propanamido)thiophene-3-carboxylic acid], the IC50 was less than 10 µM.

For the molecule `O=C(Nc1scc(-c2ccc(Cl)cc2)c1C(=O)O)c1nc2c(F)cccc2o1` [4-(4-chlorophenyl)-2-(4-fluorobenzo[d]oxazole-2-carboxamido)thiophene-3-carboxylic acid], the IC50 was less than 10 µM.

For `O=C(Nc1scc(-c2ccc(Cl)cc2)c1C(=O)O)c1nc2cccc(Br)c2o1` [2-(7-bromobenzo[d]oxazole-2-carboxamido)-4-(4-chlorophenyl) thiophene-3-carboxylic acid], the IC50 is less than 10 µM.

In the case of `Cc1ccc(-c2csc(NC(=O)c3cc(C)oc3C)c2C(=O)O)cc1` [2-(2,5-dimethylfuran-3-carboxamido)-4-p-tolylthiophene-3-carboxylic acid], the IC50 was less than 10 µM.

Take `O=C(Nc1scc(-c2cc(F)c(Cl)c(F)c2)c1C(=O)O)c1nc2ccccc2o1` [2-(benzo[d]oxazole-2-carboxamido)-4-(4-chloro-3,5-difluorophenyl)thiophene-3-carboxylic acid]: the IC50 is less than 10 µM.

For the molecule `O=C(Nc1scc(-c2cc(F)c(Cl)c(F)c2)c1C(=O)O)c1nc2ccccc2s1` [2-(benzo[d]thiazole-2-carboxamido)-4-(4-chloro-3,5-difluorophenyl)thiophene-3-carboxylic acid], the IC50 was less than 10 µM.

As for `O=C(CC(c1ccccc1)c1ccccc1)Nc1scc(-c2ccc(Cl)cc2)c1C(=O)O` [4-(4-chlorophenyl)-2-(3,3-diphenylpropanamido)thiophene-3-carboxylic acid], the IC50 is less than 10 µM.

As for `O=C(Nc1scc(-c2ccc(Cl)cc2)c1C(=O)O)c1nc2ccc(F)cc2o1` [4-(4-chlorophenyl)-2-(6-fluorobenzo[d]oxazole-2-carboxamido)thiophene-3-carboxylic acid], the IC50 is less than 10 µM.

As to `COC1CCCC(C(=O)Nc2scc(-c3ccc(Br)cc3)c2C(=O)O)C1` (stereo not drawn) [4-(4-bromophenyl)-2-(3-methoxycyclohexanecarboxamido)thiophene-3-carboxylic acid], the IC50 was less than 10 µM.

For the molecule `O=C(Nc1scc(-c2ccc(Cl)cc2)c1C(=O)O)c1ccc(Cl)nn1` [4-(4-chlorophenyl)-2-(6-chloropyridazine-3-carboxamido)thiophene-3-carboxylic acid], the IC50 is less than 10 µM.

For `O=C(O)c1c(-c2ccc(Br)cc2)csc1Nc1nc(-c2ccccc2)no1` [4-(4-bromophenyl)-2-(3-phenyl-1,2,4-oxadiazol-5-ylamino)thiophene-3-carboxylic acid], the IC50 was less than 10 µM.

Turning to `Cc1ccc(-c2csc(NC(=O)c3cnc4ccccc4n3)c2C(=O)O)c(F)c1F` [4-(2,3-difluoro-4-methylphenyl)-2-(quinoxaline-2-carboxamido)thiophene-3-carboxylic acid], the IC50 is less than 10 µM.

As for `O=C(Nc1scc(-c2ccc(Cl)cc2)c1C(=O)O)c1nc2c(O)cccc2o1` [4-(4-chlorophenyl)-2-(4-hydroxybenzo[d]oxazole-2-carboxamido)thiophene-3-carboxylic acid], the IC50 is less than 10 µM.

`O=C(Nc1scc(-c2ccc(Cl)cc2)c1C(=O)O)c1nc2ccccc2o1` [2-(benzo[d]oxazole-2-carboxamido)-4-(4-chlorophenyl)thiophene-3-carboxylic acid]: the IC50 is less than 10 µM.

In the case of `Cc1ccc(-c2csc(NC(=O)c3scc(S(=O)(=O)C(C)C)c3Cl)c2C(=O)O)cc1` [2-(3-chloro-4-(isopropylsulfonyl)thiophene-2-carboxamido)-4-p-tolylthiophene-3-carboxylic acid], the IC50 was less than 10 µM.

In the case of `O=C(Nc1scc(-c2cc(F)c(F)c(F)c2)c1C(=O)O)c1nc2ccccc2o1` [2-(benzo[d]oxazole-2-carboxamido)-4-(3,4,5-trifluorophenyl)thiophene-3-carboxylic acid], the IC50 was less than 10 µM.

Regarding `O=C(O)c1c(-c2ccc(Cl)c(Cl)c2)csc1NC(=O)C1CC1` [2-(cyclopropanecarboxamido)-4-(3,4-dichlorophenyl)thiophene-3-carboxylic acid], the IC50 is less than 10 µM.

As for `O=C(Nc1scc(-c2ccc(Cl)cc2)c1C(=O)O)c1cc2sccc2[nH]1` [4-(4-chlorophenyl)-2-(4H-thieno[3,2-b]pyrrole-5-carboxamido)thiophene-3-carboxylic acid], the IC50 was less than 10 µM.

Regarding `Cn1nc(C(=O)Nc2scc(-c3ccc(Cl)cc3)c2C(=O)O)cc1-c1ccccc1` [4-(4-chlorophenyl)-2-(1-methyl-5-phenyl-1H-pyrazole-3-carboxamido)thiophene-3-carboxylic acid], the IC50 was less than 10 µM.

For the molecule `N#Cc1cccc2cc(-c3csc(NC(=O)c4cc5ccccc5o4)c3C(=O)O)oc12` [2-(benzofuran-2-carboxamido)-4-(7-cyanobenzofuran-2-yl)thiophene-3-carboxylic acid], the IC50 is less than 10 µM.

`O=C(Nc1scc(-c2ccc(Br)cc2)c1C(=O)O)c1nc2c(F)cccc2o1` [4-(4-bromophenyl)-2-(4-fluorobenzo[d]oxazole-2-carboxamido)thiophene-3-carboxylic acid]: the IC50 is less than 10 µM.

In the case of `O=C(CCc1ccco1)Nc1scc(-c2ccc(Br)cc2)c1C(=O)O` [4-(4-bromophenyl)-2-(3-(furan-2-yl)propanamido)thiophene-3-carboxylic acid], the IC50 was less than 10 µM.

On to `O=C(Nc1scc(-c2ccc(Cl)cc2)c1C(=O)O)c1cc2ncccn2n1` [4-(4-chlorophenyl)-2-(pyrazolo[1,5-a]pyrimidine-2-carboxamido)thiophene-3-carboxylic acid], for which the IC50 was less than 10 µM.

For the molecule `O=C(Nc1scc(-c2ccc(Cl)cc2)c1C(=O)O)c1cc(Cl)sc1Cl` [4-(4-chlorophenyl)-2-(2,5-dichlorothiophene-3-carboxamido)thiophene-3-carboxylic acid], the IC50 is less than 10 µM.

With `O=C(Nc1scc(-c2ccc(Br)cc2)c1C(=O)O)c1nc2ccccc2o1` [2-(benzo[d]oxazole-2-carboxamido)-4-(4-bromophenyl)thiophene-3-carboxylic acid], the IC50 is less than 10 µM.

Turning to `O=C(Nc1scc(-c2ccc(Cl)cc2F)c1C(=O)O)c1nc2ccccc2s1` [2-(benzo[d]thiazole-2-carboxamido)-4-(4-chloro-2-fluorophenyl)thiophene-3-carboxylic acid], the IC50 is less than 10 µM.

Take `Cc1ccc(-c2csc(NC(=O)c3nc4c(F)cccc4o3)c2C(=O)O)c(F)c1F` [4-(2,3-difluoro-4-methylphenyl)-2-(4-fluorobenzo[d]oxazole-2-carboxamido)thiophene-3-carboxylic acid]: the IC50 was less than 10 µM.

In the case of `Cc1cc(Cl)ccc1-c1csc(NC(=O)c2nc3ccccc3o2)c1C(=O)O` [2-(benzo[d]oxazole-2-carboxamido)-4-(4-chloro-2-methylphenyl)thiophene-3-carboxylic acid], the IC50 is less than 10 µM.

As for `O=C(Nc1scc(-c2ccc(Cl)c(Cl)c2)c1C(=O)O)c1nc2ccccc2o1` [2-(benzo[d]oxazole-2-carboxamido)-4-(3,4-dichlorophenyl)thiophene-3-carboxylic acid], the IC50 was less than 10 µM.

For the molecule `O=C(CCc1ccc(Cl)cc1)Nc1scc(-c2ccc(Cl)cc2)c1C(=O)O` [4-(4-chlorophenyl)-2-(3-(4-chlorophenyl)propanamido)thiophene-3-carboxylic acid], the IC50 was less than 10 µM.

As for `Cc1ccc(-c2csc(NC(=O)c3sccc3C)c2C(=O)O)cc1` [2-(3-methylthiophene-2-carboxamido)-4-p-tolylthiophene-3-carboxylic acid], the IC50 is less than 10 µM.

Turning to `O=C(CC(c1ccccc1)c1ccccc1)Nc1scc(-c2ccc(Br)cc2)c1C(=O)O` [4-(4-bromophenyl)-2-(3,3-diphenylpropanamido)thiophene-3-carboxylic acid], the IC50 is less than 10 µM.

As for `Cc1ccc(-c2csc(NC(=O)c3ccc4snnc4c3)c2C(=O)O)c(F)c1F` [2-(benzo[d][1,2,3]thiadiazole-5-carboxamido)-4-(2,3-difluoro-4-methylphenyl)thiophene-3-carboxylic acid], the IC50 is less than 10 µM.

By IC50 is commonly meant the concentration that gives 50% inhibition.

(Values after US8394848B2, “Compounds that modulate intracellular calcium” (Calcimedica, Inc., priority 2008, dated 2013).)
